Test results taken from ChEMBL document CHEMBL3232942, “Benzophenone C-glucosides and gallotannins from mango tree stem bark with broad-spectrum anti-viral activity” (Bioorg Med Chem, 2014).
Active and inactive are the calls of the source. No cut-off for these calls is given here.

Assays:
Neuraminidase = Neuraminidase (Influenza A virus, UniProt Q194T1); assay: Inhibition of Influenza A virus (A/RI/5+/1957(H2N2)) recombinant neuraminidase using MUNANA as substrate after 30 mins
[1] = target: Genome polyprotein (Coxsackievirus B3 (strain Nancy)) (UniProt P03313); assay: Inhibition of His-6-tagged Coxsackievirus B3 3C protease expressed in Escherichia coli BL21(DE3) using Asp-Glu-EDANS-(5-((2-aminoethyl)amino)naphthalene-1-sulfonic acid)-MSAIFQGPISK-DABCYL (4-((4-(dimethylamino)phenyl)azo)benzoic acid) as peptide substrate at 100 uM by fluorescence-based […] assay
Genome polyprotein = Genome polyprotein (Coxsackievirus B3 (strain Nancy), UniProt P03313); assay: Inhibition of His-6-tagged Coxsackievirus B3 3C protease expressed in Escherichia coli BL21(DE3) using Asp-Glu-EDANS-(5-((2-aminoethyl)amino)naphthalene-1-sulfonic acid)-MSAIFQGPISK-DABCYL (4-((4-(dimethylamino)phenyl)azo)benzoic acid) as peptide substrate by fluorescence-based […] assay
HepG2 = assay: Cytotoxicity against human HepG2 cells assessed as cell viability after 48 hrs by MTT assay; format: cell-based; settings: HepG2, 48 h
HeLa = assay: Cytotoxicity against human HeLa cells assessed as cell viability after 48 hrs by MTT assay; format: cell-based

SMILES | inhibition [1] | other results
O=C(OC[C@H]1O[C@@H](O)[C@H](OC(=O)c2cc(O)c(O)c(O)c2)[C@@H](OC(=O)c2cc(O)c(O)c(O)c2)[C@@H]1OC(=O)c1cc(O)c(O)c(O)c1)c1cc(O)c(O)c(O)c1 | 100% | IC50 (Neuraminidase): 9.2 µM; IC50 (Genome polyprotein): 2 µM; IC50 (HepG2): 151 µM; IC50 (HeLa): 240 µM
COc1cc(O)c(C(=O)c2ccc(O)cc2)c(O)c1[C@@H]1O[C@H](CO)[C@@H](O)[C@H](O)[C@H]1O | 17.5% | –
O=C(O[C@@H]1C[C@](O)(C(=O)O)C[C@@H](O)[C@H]1O)c1cc(O)c(O)c(O)c1 | 29.8% | –
COc1cc(O)c(C(=O)c2ccc(O)cc2)c(O[C@@H]2O[C@H](CO)[C@@H](O)[C@H](O)[C@H]2O)c1 | inactive | –
O=C(O[C@@H]1O[C@H](CO)[C@@H](O)[C@H](O)[C@H]1O)c1cc(O)c(O)c(O)c1 | 23.6% | –
COc1cc(O)c(C(=O)c2ccc(O)cc2)c(O)c1[C@@H]1O[C@H](CO)[C@@H](O)[C@H](O)[C@H]1OC(=O)c1cc(O)c(O)c(O)c1 | 53.8% | –
CO[C@@H]([C@@H]1OC(C(=O)O)=C[C@H](NC(=N)N)[C@H]1NC(C)=O)[C@H](O)CO | – | IC50 (Neuraminidase): 3.1 µM
O=C(O)c1cc(O)c(O)c(O)c1 | inactive | –
COc1cc2oc3cc(O)c(O)cc3c(=O)c2c(O)c1[C@@H]1O[C@H](CO)[C@@H](O)[C@H](O)[C@H]1O | 13.3% | –
O=c1c2cc(O)c(O)cc2oc2c(-c3c(O)c([C@@H]4O[C@H](CO)[C@@H](O)[C@H](O)[C@H]4O)c(O)c4c(=O)c5cc(O)c(O)cc5oc34)c(O)c([C@@H]3O[C@H](CO)[C@@H](O)[C@H](O)[C@H]3O)c(O)c12 | 46.1% | –
O=c1c2cc(O)c(O)cc2oc2cc(O)c([C@@H]3O[C@H](CO)[C@@H](O)[C@H](O)[C@H]3O)c(O)c12 | 21.4% | –
CCOC(=O)C1=C[C@@H](OC(CC)CC)[C@H](NC(C)=O)[C@@H](N)C1 [OSELTAMIVIR PHOSPHATE] | – | IC50 (Neuraminidase): 0.8 µM
O=C(OC(=O)c1ccc(O)c(O)c1)c1ccc(O)c(O)c1 | inactive | –
O=C(OC[C@H]1O[C@@H](OC(=O)c2cc(O)c(O)c(O)c2)[C@H](OC(=O)c2cc(O)c(O)c(O)c2)[C@@H](OC(=O)c2cc(O)c(O)c(O)c2)[C@@H]1OC(=O)c1cc(O)c(O)c(O)c1)c1cc(O)c(O)c(O)c1 [PENTAGALLOYL GLUCOSE] | 100% | IC50 (Neuraminidase): 11.9 µM; IC50 (Genome polyprotein): 1.1 µM; IC50 (HepG2): 92.4 µM; IC50 (HeLa): 356 µM
COc1cc(O)c(C(=O)c2ccc(O)cc2)c(O)c1[C@@H]1O[C@H](CO)[C@@H](O)[C@H](O)[C@H]1OC(=O)c1ccc(O)cc1 | 27.2% | –
